Laboratory results as given in patent US10639371B2, “Thermoresponsive bioconjugates and their controlled delivery of cargo” (University of Delaware, priority 2015, dated 2020).
Where no end group is shown, it is not given here.

Columns and labels:
[1] = test system: TNF-α production from RAW264.7 macrophages; test: TNF-α ELISA, RAW264.7 macrophages (inflammation response); assay type: cell-based
Procedure: Blank PBS was used as a negative control and lipopolysaccharide (LPS, 50 ng/mL) was used as a positive control; and (B) TNF-α production from RAW264.7 macrophages, treated with ELP-CLP nanoparticles at various concentrations. Blank PBS was used as a negative control and lipopolysaccharide (LPS, 50 ng/mL) was used as a positive control.
(B) Viability of NIH-3T3 fibroblasts (8,000 cells/cm^2 in DMEM/10% FBS); live/dead overlay shown. (C) TNF-α production from RAW264.7 murine macrophage-like cell culture (15,000 cells/cm^2 in DMEM/10% FBS) in the presence of various concentrations of CLP-ELP nanoparticles.
RAW264.7 murine macrophages were purchased from American Type Culture Collection (ATCC) and were cultured in DMEM (Sigma Aldrich) supplemented with 10% heat-inactivated fetal bovine serum (MediaTech), 10 mM HEPES (GIBCO), 55 μM β-mercaptoethanol (GIBCO), and 1% antibiotic/antimycotic (GIBCO) at 37° C. with 5% CO2. […] Cell metabolism post-treatment was assayed using PrestoBlue Viability Assay (Life Technologies), which provides a fluorescence measurement of the overall reductive capability of the cells, according to the manufacturer's instructions. […] After 2 h of incubation at 37° C., the medium was collected and analyzed using a PerkinElmer VICTOR3 1420 Multilabel Plate Reader (PerkinElmer, Waltham, Mass.) at excitation/emission wavelengths of 570 nm/615 nm. […]

[2] = Dynamic light scattering (DLS) of assemblies upon heating; assay type: physicochemical; conditions: ELP alone, 1 mg/mL in water
Procedure: (A) ELP at 1 mg/mL in water; (B) ELP and CLP physical mixture at 0.5 mg/mL each in water.
The anticipated assembly of ELP-CLP nanostructures at physiologically relevant temperatures was confirmed via dynamic light scattering (DLS) (FIG. 3). In contrast to our expectations that nanoparticle formation would be triggered at near physiological temperature, however, the conjugates formed structures with hydrodynamic diameters (Dh) that ranged from approximately 50 to 200 nm at all temperatures between 4° C. and 65° C. (FIG. 3a), with a Dh of approximately 160 nm at 37° C. (FIG. 3b).
The anchoring of the ELP by the noncovalent formation of CLP triple helix, however, should offer unique and as yet unreported opportunities to reversibly modulate the transition temperatures of the ELP domain and to thus confer dual thermoresponsiveness to the conjugates. Indeed, after an initial increase in the Dh of the ELP-CLP nanoparticles with heating to 50° C. (FIG. 3), Dh begins to decrease once the sample is heated above this temperature, which is also approximately the melting temperature of the CLP (FIG. 2b). With additional heating to 80° C., the CLP unfolds completely (FIG. 2b), and the nanoparticles become fully solubilized as monomers with an average Dh of only 5.6 nm (FIG. 3b). […]

[3] = Circular dichroic spectroscopy (CD), thermal unfolding of CLP triple helix; assay type: physicochemical; conditions: first derivative of CD melting curve
Procedure: (§1) The ability of the CLP domain to form stable triple helix at physiological temperature while conjugated to the ELP was probed via circular dichroic spectroscopy (CD). The CD spectra of ELP-CLP at temperatures ranging from 5° C. to 80° C. […] Presumably, the collapse of the ELP domain at the elevated temperatures anchors the CLP and stabilizes it against unfolding, similar to our previously reported results for a polymer-conjugated CLP. The refolding of the CLP triple helix (FIGS. 2c and 2d) is likewise accelerated by the ELP anchoring of the CLP, owing to the increase in the local concentration of the CLP strands.

[4] = CD refolding of CLP triple helix after quenching from 80° C. to 5° C.; assay type: physicochemical
Procedure: as §1

## lipopolysaccharide [LPS]
[1]; FIG. 18C, 15,000 cells/cm^2, various concentrations
  TNF-α expression: elevated TNF-α expression
[1]; nanoparticles 50-1000 μg/mL, LPS 50 ng/mL, 8 h
  TNF-α expression: high levels of TNF-α expression

## (VPGFG)6 (VPGFGVPGFGVPGFGVPGFGVPGFGVPGFG; also: alkyne functionalization, site not given here) [ELP]
[2]
  inverse transition / aggregation upon heating: does not undergo a transition

## (GPO)4GFOGER(GPO)4GG [CLP]
[3]
  Tm (unfolding of CLP triple helix): ca. 50 °C
[4]
  rate constant of triple helix refolding reaction: 1.14×10^7 M^−2·s^−1
